Measurements taken from patent US8658649B2, “Kinase inhibitor” (Sanofi, priority 2006, dated 2014).

Legend:
[1] = target: T1, Syk (Homo sapiens, UniProt P43405); assay: Syk substrate phosphorylation, Streptavidin FlashPlate; format: biochemical; conditions: 7.77 nM Flag-tagged Syk, PGT-Biotin substrate, 33P-ATP
T1 construct: Flag; made in house
From the text: • Assay Name: Spleen Tyrosine (Y) Kinase • Short Name: Syk • Assay Format: Substrate Phosphorylation • Detection Format: Streptavidin FlashPlate • Modulation: Inhibition
Streptavidin FlashPlate Plus microplates from PerkinElmer Life Sciences™ are designed for in-plate radiometric assays. The interior of each well is permanently coated with a thin layer of polystyrene-based scintillant followed by covalent binding of Streptavidin. These plates are suitable for a wide variety of assay applications which utilize biotinylated capture molecules. Poly (Glu,Tyr) 4:1 (PGT) is a random copolymer that can act as a substrate for tyrosine-specific protein kinases. The assay measures the phosphorylation of PGT-Biotin substrate by Syk. The enzyme transfers the [γ^33P]-phosphate from [γ^33P]-ATP to the polymeric substrate. The assay was run in solution in a non-binding 384-well plate. After stopping the reaction using phosphoric acid, the reaction mixture was transferred to a 384-well Streptavidin Flashplate. The biotinylated substrate was captured onto the plate and other reagents including hot ATP were washed away. Each well was then counted for radioactivity.
The enzyme reaction was run in a 384-well non-binding plate. […] Radioactivity was counted on a Top Count™ scintillation counter. […]

[2] = test system: Collagen-induced arthritis (CIA); assay: Rat collagen induced arthritis, combination dosing with Methotrexate; format: in vivo
Protocol: Immunization and Challenge: Female Lewis rats were immunized on day 0 and challenged on day 7 with cII from bovine nasal mixed with Freund's incomplete adjuvant at a final collagen concentration of 1.0 mg/ml. The animals were injected at the base of the tail with 400 μg of cII. Combination Dosing Regimen: Rats were dosed with the compound of Formula I (3.0 and 10 mg/kg, p.o., bi.d.) or Methotrexate (MTX, 0.1 and 0.2 mg/kg, p.o., q.d.) as monotherapy or in combinations consisting of each dose of the compound of Formula I with each dose of MTX starting on day 6 and continuing through day 21. Joint Pathology Ankle joint swelling was measured to the nearest 0.01 mm by using electronic digital calipers. Measurements were recorded 7 times throughout the study starting on day 6 and ending on day 21. Body weights were recorded on the same days. On day 21, hind paws were removed at the hairline just above the ankle and fixed in 10% neutral buffered formalin. MicroCT analysis: Ankle joints were examined using a cone-beam μCT scanner. A scout view scan was obtained first for selection of the examination volume of the specimens, followed by positioning, measurement and computational reconstruction. In ankle joints, the ratio of bone surface to bone volume, describing the complexity of bone surface in a certain volume, was analyzed. Statistical Analysis For joint swelling/inflammation, data were analyzed using Everstat v.5 software and a 2-way repeated measure ANOVA with Dunnett's post test. MicroCT data were analyzed by Everstat using a 1-way ANOVA and Newman-Keuls multiple comparison test.

For `CCc1c(-c2ccc(C(C)(C)O)cc2)[nH]c2nccnc12` [compound of Formula I, 2-[4-(7-Ethyl-5H-pyrrolo[2,3-b]pyrazin-6-yl)-phenyl]-propan-2-ol], the IC50 [1] was 1.7 nM, the “disease severity as measured by joint swelling/inflammation” value ([2]; 3.0 mg/kg monotherapy) was “failed to significantly impact on disease severity” and the “bone erosion, MicroCT” value ([2]; 3 mg/kg monotherapy, vs vehicle) was “significant decrease was not observed”. For the same compound, the ankle swelling/inflammation ([2]; 10 mg/kg monotherapy, vs vehicle, days 15 through 21) was “significantly reduced ankle swelling/inflammation” and the “bone erosion, MicroCT” value ([2]; 10 mg/kg po bid monotherapy, vs vehicle) was “significant decrease in bone erosion”.
